Measured values taken from PMC2698029 (Journal of medicinal chemistry, 2009).
Structures can show the parent of a compound that is named as a salt. Marks after values point to notes of the source that are not given here.

Legend:
[1] = test system: Plasmodium berghei, ANKA strain; conditions: cited from earlier work; for Average survival time (not prolonged beyond day): single oral dose of 30 mg/kg, summary of Table 1
[2] = Hydrolytic stability in DMSO/water; type: physicochemical; conditions: room temperature, 80/20 DMSO/water at pH 7.4
[3] = test system: WT-MEF Noncancerous mouse embryonic fibroblasts; test: Cytotoxicity, SRB assay, WT-MEF noncancerous fibroblasts; type: cell-based; conditions: Fibroblast, 72 h, read-out: IC50 Values (μM)
[4] = test system: Plasmodium berghei, ANKA strain; test: Single oral dose antimalarial efficacy in P. berghei-infected mice; type: in vivo, C57BL/6J male mice; conditions: single oral dose 144 mg/kg
[5] = Thermal stability in the solid state; type: physicochemical; conditions: 60 °C
[6] = single oral dose of 30 mg/kg (printed in the 1 × 72 column)

Row | Compound | Average Survival (days) After Infection [1, 6] | Average survival time (not prolonged beyond day) [1] | Time stable in solution [2] | IC50 [3] | Parasitemia at day 30 ([4]; 2 of the 5 mice, appeared sick) | Time stable in the solid state [5] | Adverse effects ([4]; malaria-infected mice) | Stability in the solid state for one week ([5]; one week) | % Suppression of Parasitemia (on day 3 post infection) [1, 6]
1 | C[C@H]1[C@H](OC(=O)CCC(=O)[O-])O[C@@H]2O[C@@]3(C)CC[C@H]4[C@H](C)CC[C@@H]1[C@@]24OO3.[Na+] [Dimer 1c, sodium artesunate] | 7.6 ^b days | ≤ 11 days | – | – | – | – | – | – | –
2 | C[C@H]1[C@@H](CC(C[C@H]2O[C@@H]3C[C@]4(C)CC[C@H]5[C@H](C)CC[C@@H]([C@H]2C)[C@@]35OO4)CS(=O)(=O)c2ccc(CO)cc2)O[C@@H]2C[C@]3(C)CC[C@H]4[C@H](C)CC[C@@H]1[C@@]24OO3 (some centres unmarked) [Dimer 4b, dimeric sulfone benzylic alcohol] | – | – | at least 12 hours | > 50 µM | 7–9% | ≥ 24 h | – | – | –
3 | C[C@H]1[C@@H](CC(C[C@H]2O[C@@H]3C[C@]4(C)CC[C@H]5[C@H](C)CC[C@@H]([C@H]2C)[C@@]35OO4)CS(=O)(=O)c2ccc(COC(=O)N(C)C)cc2)O[C@@H]2C[C@]3(C)CC[C@H]4[C@H](C)CC[C@@H]1[C@@]24OO3 [Dimer 4c, dimeric sulfone benzylic dimethyl carbamate] | – | – | at least 12 hours | > 50 µM | – | ≥ 24 h | no adverse effects | stable | –
4 | CC(C)(N)CNC(=O)C[C@H]1CC[C@]2(CC1)OO[C@]1(O2)C2CC3CC(C2)CC1C3 [Dimer 7, OZ277 maleate] | 10.7 ^b days | ≤ 11 days | – | – | – | – | – | – | 99.95 ^b %
